From paper PMC3944805, “Reinterpreting the Mechanism of Inhibition of Mycobacterium tuberculosisD-Alanine:D-Alanine Ligase by D-Cycloserine” (Biochemistry, 2013)
Where two headings read alike, the source gives them in different places.

Legend:
[1] = target: T1, Mycobacterium tuberculosis Ddl (MtDdl) (Mycobacterium tuberculosis, UniProt P9WP31); details: cited from earlier work
T1 construct: hexahistidine tag; made in house

[2] = target: T2, Escherichia coli DdlB (EcDdl) (Escherichia coli, UniProt P07862); design: hexahistidine tag (from pET28a+) (N); made in house; host or cells: E. coli BL21; method as in Zawadzke et al., 1991; details: EcDdlB, previously published value in parentheses, ref Zawadzke et al., 1991, cited from earlier work
[3] = target: T1, Mycobacterium tuberculosis Ddl (MtDdl); experiment: Slow-onset inhibition of MtDdl by stopped-flow coupled enzyme time courses; format: biochemical; details: for koff: read-out: k–2 (DCS dissociation rate constant)
Method: (§1) Steady-state kinetics and equilibrium binding were performed as previously described.[4] Time courses for the measurement of slow-onset inhibition were collected on an SX20 stopped-flow spectrometer (Applied Photophysics) at 37 °C, using a 10 mm path-length cell. Data points were recorded every 0.1 s. Catalysis was detected by the same coupled enzyme mechanism as used previously for steady-state kinetic measurements.[4] All reaction mixtures contained 50 mM HEPES (pH 7.3), 10 mM MgCl2, 80 mM KCl, 3 mM ATP, 0.25 mM NADH, 1.5 mM PEP, and a 40 μL/mL pyruvate kinase/lactate dehydrogenase enzyme solution (PK-LDH; stock solution of 600–1000 units/mL PK and 900–1400 units/mL LDH). MtDdl was employed at concentrations from 60 to 290 nM and EcDdl at a final concentration of 30 nM. DCS and D-Ala concentrations were varied as required. Reaction components were sorted into two syringes, with rapid mixing of 60 μL from each starting each reaction. For all assays, both syringes contained HEPES, MgCl2, KCl, NADH, PEP, and PK-LDH. MtDdl and D-Ala were always stored in separate syringes. For analysis of slow-onset inhibition at the C-terminal D-Ala binding site (i.e., data for Figure 1), DCS and Mt/EcDdl were stored in separate reaction mixtures prior to the commencement of the reaction. For analysis of slow-onset inhibition at the N-terminal D-Ala site (i.e., data for Figure 2), MtDdl and DCS (with or without ATP) were stored in the same reaction mixture (for at least 4 min) prior to the commencement of the reaction.
(§2) Individual time course data were fit using eq 1 [drawing 1] 1 where [P]t is the product formed at time t, [E] is the total MtDdl concentration, vi is the initial rate, vf is the final (steady-state) rate, and kobs is the apparent rate constant for approach to the steady state.[7] Time courses were performed in triplicate and kobs values averaged for each DCS and D-Ala concentration tested. Secondary replots of kobs versus DCS concentration were fit using eq 2 [drawing 2] 2 where [I] is the DCS concentration, [S] is the D-Ala concentration, and k2 and k–2 are rate constants as described in Scheme 2. The Km value was that for the C-terminal site (4 mM), as previously reported.[4]

MtDdl = experiment: Theoretical calculation of dissociative t1/2 for MtDdl:ATP:D-Ala1:D-Ala2 complex; design: species or system Mycobacterium tuberculosis; details: theoretical calculations
Text: Supporting Information to:
Reinterpreting the mechanism of inhibition of Mycobacterium tuberculosis D-Alanine:D-Alanine ligase by D-Cycloserine.
Gareth Prosser and Luiz Pedro S. de Carvalho.
Division of Mycobacterial Research, MRC National Institute for Medical Research, The Ridgeway, […]
Table S1. Steady-state kinetic parameters for MtDdl and EcDdl. […]
aReaction conditions for both enzymes were as previously reported.1 bValues for MtDdl taken from our previous work.1 cValues in parentheses are previously published values.2
Theoretical calculation of dissociative t1/2 for MtDdl:ATP:D-Ala1:D-Ala2 complex […]
k = diffusion-rate limited = 1 × 1010 M-1.s-1
Figure S1. Comparison of dissociative half-lives (t1/2) of MtDdl:ATP:D-Ala:DCS and MtDdl:ATP:D-Ala-D-Ala complexes. Half-life for DCS-containing complex was measured experimentally as described in the main paper. Half-life for D-Ala-only-containing complex was calculated theoretically as described […]
(1 picture or pasted object on this page, not shown here)

[4] = target: T2, Escherichia coli DdlB (EcDdl); experiment: Steady-state kinetics of EcDdl
Method: (§3) Time courses for the measurement of slow-onset inhibition were collected on an SX20 stopped-flow spectrometer (Applied Photophysics) at 37 °C, using a 10 mm path-length cell. Data points were recorded every 0.1 s. Catalysis was detected by the same coupled enzyme mechanism as used previously for steady-state kinetic measurements.[4] All reaction mixtures contained 50 mM HEPES (pH 7.3), 10 mM MgCl2, 80 mM KCl, 3 mM ATP, 0.25 mM NADH, 1.5 mM PEP, and a 40 μL/mL pyruvate kinase/lactate dehydrogenase enzyme solution (PK-LDH; stock solution of 600–1000 units/mL PK and 900–1400 units/mL LDH). MtDdl was employed at concentrations from 60 to 290 nM and EcDdl at a final concentration of 30 nM. DCS and D-Ala concentrations were varied as required. Reaction components were sorted into two syringes, with rapid mixing of 60 μL from each starting each reaction. For all assays, both syringes contained HEPES, MgCl2, KCl, NADH, PEP, and PK-LDH. MtDdl and D-Ala were always stored in separate syringes. For analysis of slow-onset inhibition at the C-terminal D-Ala binding site (i.e., data for Figure 1), DCS and Mt/EcDdl were stored in separate reaction mixtures prior to the commencement of the reaction. […]

[5] = target: T2, Escherichia coli DdlB (EcDdl); experiment: Slow-onset inhibition of EcDdl by stopped-flow coupled enzyme time courses; format: biochemical; design: hexahistidine tag (from pET28a+) (N); made in house; host or cells: E. coli BL21
Method: as §1, §2

C[C@@H](N)C(=O)O = experiment: purified protein, by the assay type; details: other: EcDdlB; pH 7.3; 37.0 °C
Method: as §3

[6] = MtDdl preincubated with ATP with DCS, MtDdl–ATP complex, 40 mM D-Ala, 3 mM ATP
[7] = MtDdl preincubated with ATP, C-terminal D-Ala site, averaged over 0.4 to 40 mM D-Ala, 37 °C, pH 7.3
[8] = EcDdl preincubated with ATP, only 0.75 mM D-Ala tested

T1 sequence (P9WP31 whole entry): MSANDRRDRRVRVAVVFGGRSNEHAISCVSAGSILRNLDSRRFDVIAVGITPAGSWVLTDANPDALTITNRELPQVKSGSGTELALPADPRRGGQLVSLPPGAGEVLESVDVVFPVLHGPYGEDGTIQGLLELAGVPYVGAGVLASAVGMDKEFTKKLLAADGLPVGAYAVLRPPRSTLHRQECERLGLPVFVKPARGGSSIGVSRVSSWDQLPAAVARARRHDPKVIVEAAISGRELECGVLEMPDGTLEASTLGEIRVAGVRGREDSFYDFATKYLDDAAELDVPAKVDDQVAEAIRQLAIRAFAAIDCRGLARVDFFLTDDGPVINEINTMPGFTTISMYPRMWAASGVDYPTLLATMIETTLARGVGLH

C[C@@H](N)C(=O)O [D-Ala, D-alanine]
Km ([1]; read-out: Km for the C-terminal site, value used in eq 2): 4 mM
Km ([1]; read-out: Km,D-Ala2, C-terminal site, previous work, ref Prosser and de Carvalho, 2013): 3.6 ± 0.6 mM
Km ([2]; read-out: Km,D-Ala2): 1.2 mM

N[C@@H]1CONC1=O [DCS, (R)-4-amino-1,2-oxazolidin-3-one]
t1/2 (dissociative half-life) ([3]; MtDdl preincubated with ATP with DCS, MtDdl–ATP complex): 25 s
k2 (DCS binding rate constant) [3, 6]: 373 ± 11 M^–1 s^–1
koff [3, 6]: 0.028 ± 0.001 s⁻¹
k2 (DCS binding rate constant) [3, 7]: 888 ± 36 M^–1 s^–1
koff [3, 7]: 0.014 ± 0.003 s⁻¹
t1/2 (dissociative half-life) ([3]; MtDdl preincubated with ATP, MtDdl:ATP:D-Ala:DCS complex): 48 s
DCS–MtDdl complex residence time longer than that for the D-Ala–MtDdl complex (MtDdl): up to 8 orders of magnitude
stability by one-dimensional NMR (across all pHs tested over the time frame of the experiment): stable
stability by one-dimensional and 13C HSQC NMR (in the presence and absence of enzyme (and other buffer components)): no spectral changes
Ki ([1]; MtDdl–ATP–D-Ala complex, previous work, read-out: Ki,DCS2): 25 µM
Ki ([1]; previous data, read-out: Ki,DCS1): 15 µM
Ki [4]: 44 ± 10 µM
fold faster rate of association of the enzyme–inhibitor complex (k2), EcDdl vs MtDdl ([5]; EcDdl compared with MtDdl): > 3 fold
fold faster rate of dissociation of the enzyme–inhibitor complex (k–2), EcDdl vs MtDdl ([5]; EcDdl compared with MtDdl): 10 fold
k2 (DCS binding rate constant) [5, 8]: 2970 ± 360 M^–1 s^–1
t1/2 (dissociative half-life) [5, 8]: 5 s
koff ([5]; EcDdl preincubated with ATP, only 0.75 mM D-Ala tested, read-out: k–2 (DCS dissociation rate constant)): 0.13 ± 0.03 s⁻¹
Ki ([2]; read-out: Ki,DCS2): 27 µM

Escherichia coli DdlB (EcDdl) (Escherichia coli K-12)
Km (C[C@@H](N)C(=O)O): 0.8 ± 0.07 mM
